This note sets out measurements from paper PMC4624507 (2015).

Holding throughout (test): ITC
Settings in all cases: 135 mM KCl, 15 mM NaCl, 10 mM MgCl2; 50 mM TrisCl pH 8.0, 37 °C

The test system of experiment [1] is metE aptamer A153C (RNA, riboswitch) GGCAUUUUCUCUUAUCGAGAGUUGGGCGAGGGAUUGGCCUUUUGACCCCAACAGCAACCGACCGUAAUACCAUUGUGAAAUGGGGCGCACUGCUUUUCGCGCCGAGACUGAUGUCUCAUAAGGCCCGGUGCUAAUUCCAUCAGAUUGUGUCUGAGAGAUGAGAGAGGCAGUG
Experiment [2] has as its system metE aptamer A153G (RNA, riboswitch) GGCAUUUUCUCUUAUCGAGAGUUGGGCGAGGGAUUGGCCUUUUGACCCCAACAGCAACCGACCGUAAUACCAUUGUGAAAUGGGGCGCACUGCUUUUCGCGCCGAGACUGAUGUCUCAUAAGGCGCGGUGCUAAUUCCAUCAGAUUGUGUCUGAGAGAUGAGAGAGGCAGUG
In experiment [3] the test system is metE aptamer A89G/Δ153 (RNA, riboswitch) GGCAUUUUCUCUUAUCGAGAGUUGGGCGAGGGAUUGGCCUUUUGACCCCAACAGCAACCGGCCGUAAUACCAUUGUGAAAUGGGGCGCACUGCUUUUCGCGCCGAGACUGAUGUCUCAUAAGGCCGGUGCUAAUUCCAUCAGAUUGUGUCUGAGAGAUGAGAGAGGCAGUG
The test system of experiment [4] is metE aptamer U157A (RNA, riboswitch) GGCAUUUUCUCUUAUCGAGAGUUGGGCGAGGGAUUGGCCUUUUGACCCCAACAGCAACCGACCGUAAUACCAUUGUGAAAUGGGGCGCACUGCUUUUCGCGCCGAGACUGAUGUCUCAUAAGGCACGGAGCUAAUUCCAUCAGAUUGUGUCUGAGAGAUGAGAGAGGCAGUG
The test system of experiment [5] is B. subtilis metE wild type aptamer domain (RNA, riboswitch) GGCAUUUUCUCUUAUCGAGAGUUGGGCGAGGGAUUGGCCUUUUGACCCCAACAGCAACCGACCGUAAUACCAUUGUGAAAUGGGGCGCACUGCUUUUCGCGCCGAGACUGAUGUCUCAUAAGGCACGGUGCUAAUUCCAUCAGAUUGUGUCUGAGAGAUGAGAGAGGCAGUG

Turning to `C[S+](CC[C@H](N)C(=O)O)C[C@H]1O[C@@H](n2cnc3c(N)ncnc32)[C@H](O)[C@@H]1O` (some centres unmarked), the “KD,obs” value in experiment [1] was 0.15 ± 0.02 µM; in experiment [2], 0.15 ± 0.02 µM; in experiment [3], 16 ± 1 µM; in experiment [4], 24 ± 7 µM; in experiment [5] it was 0.079 ± 0.008 µM.
